Values quoted from earlier work, collected in patent publication US8778989B2, “Cosmetic composition comprising a lipid fraction from vegetable source and anticrystaling agent” (Natura Cosmeticos S.A., priority 2004, dated 2014).
Like-named read-outs stand apart in the source and are kept apart here.

| SMILES | Relative Velocity of Oxidation of Fatty Acids (T = 20° C.) | Relative Velocity of Oxidation of Fatty Acids (T = 37° C.) | Relative Velocity of Oxidation of Fatty Acids (T = 100° C.) | oxidation rate relative to oleic acid (as fast as oleic acid) |
| --- | --- | --- | --- | --- |
| CCCCC/C=C\C/C=C\CCCCCCCC(=O)O [Linoleic, 9,12-linoleic acid] | 48 | 42 | 64 | 15 times |
| CCCCCCCCCCCCCCCCCC(=O)O [Stearic] |  |  | 0.6 |  |
| CCCCCCCC/C=C\CCCCCCCC(=O)O [Oleic, oleic acid] | 4 |  | 6 |  |
